The source of these data is the supplement of paper PMC11208160.
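Also: IS621 bridge recombinase in Escherichia coli cells against a fixed T5 target plasmid.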

A short description of the series: recombinant UMI read abundance after kanamycin selection (control-corrected) (log10(CPM+1)); higher = more efficient recombination; extreme values may be limits of the assay; sequences stand for … in AGTGCAGAGAAAATCGGCCAGTTTTCTCTGCCTGCAGTCCGCATGCCGTGGGACCCCTTGGGTTCTAACCTGTTGCCTAGATTTATGCAGCGGACTGCCTTTCTCCCAAAGTGATAAACCGG…AGGTTGGTTTCACT; site = the 11-nt donor. In outline:
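Values, expressed as log10(CPM+1), derive from recombinant UMI counts converted to CPM, averaged across replicates and scaled by control-derived factors. Plating was with IPTG (0.07 mM) plus kanamycin or unselected, two replicates each. The screen pooled donor and donor-binding-loop pairs for the IS621 bridge recombinase in Escherichia coli.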
Take “CAGTCGACATGGACCGGTTTTCCCGGTAATCCGTATTTGGG (site CGGTCGACTCC)”: the “recombinant UMI read abundance (log10)” value came to 0.0115.
Next, “CAGTCGACATGGACCGGTTTTCCCGGTAATCCGTATTTGGG (site CTGTCGACTCC)”: 0.0261; “CAGTCGACATGGACCGGTTTTCCCGGTAATCCGTATTTGGG (site GAGTCGACTCC)”: 0.0417; “CAGTCGACATGGACCGGTTTTCCCGGTAATCCGTATTTGGG (site TAGTCGACTCC)”: 0.01.
The value for “CAGTCTACATGGACCGGTTTTCCCGGTAATCCGTATTTGGG (site CAGTCAACTCC)” was 0.0237; that for “CAGTCTACATGGACCGGTTTTCCCGGTAATCCGTATTTGGG (site CAGTCCACTCC)” was 0.0106.
Next, “CAGTCTACATGGACCGGTTTTCCCGGTAATCCGTATTTGGG (site CAGTCGACTCC)”: 0.00653; “CAGTCTACATGGACCGGTTTTCCCGGTAATCCGTATTTGGG (site CAGTCTACTCC)”: 0.0109; “CAGTTATCATGGACCGGTTTTCCCGGTAATCCGTATTTGTG (site CAGTTATCTCA)”: 3.18.
With “CAGTTGGCATGGACCGGTTTTCCCGGTAATCCGTATTTGTG (site CAGTTGGCTCA)”, the “recombinant UMI read abundance (log10)” value is 1.47.
Next, “CATAACGCATGGACCGGTTTTCCCGGTAATCCGTATTTGGG (site CATAACGCTCC)”: 0.802.
Next, “CATAACGCATGGACCGGTTTTCCCGGTAATCCGTATTTGTG (site TGAGGGCCTGC)”: 0; “CATAGCCCATGGACCGGTTTTCCCGGTAATCCGTATTTGCC (site CATAGCCCTGG)”: 0.
Next, “CATAGGGCATGGACCGGTTTTCCCGGTAATCCGTATTTGTC (site CATAGGGCTGA)”: 2.5; “CATATCCCATGGACCGGTTTTCCCGGTAATCCGTATTTGCG (site CATATCCCTCG)”: 0.847.
Consider “CATATCTCATGGACCGGTTTTCCCGGTAATCCGTATTTGAC (site CATATCTCTGT)”, for which the “recombinant UMI read abundance (log10)” value was determined as 2.52.
Next, “CATATTCCATGGACCGGTTTTCCCGGTAATCCGTATTTGCT (site CATATTCCTAG)”: 0.
In the case of “CATCAGTCATGGACCGGTTTTCCCGGTAATCCGTATTTGAT (site CATCAGTCTAT)”, the “recombinant UMI read abundance (log10)” value worked out at 2.04.
Take “CATCATGCATGGACCGGTTTTCCCGGTAATCCGTATTTGTT (site CATCATGCTAA)”: the “recombinant UMI read abundance (log10)” value came to 1.58.
Next, “CATCCGGCATGGACCGGTTTTCCCGGTAATCCGTATTTGTC (site CATCCGGCTGA)”: 0.293.
“CATCGTTCATGGACCGGTTTTCCCGGTAATCCGTATTTGCA (site CATCGTTCTTG)”: the “recombinant UMI read abundance (log10)” value is 2.25.
Take “CATCTCGCATGGACCGGTTTTCCCGGTAATCCGTATTTGCA (site CATCTCGCTTG)”: the “recombinant UMI read abundance (log10)” value amounted to 0.985.
The value for “CATCTGCCATGGACCGGTTTTCCCGGTAATCCGTATTTGCC (site CATCTGCCTGG)” was 0; that for “CATGCAGCATGGACCGGTTTTCCCGGTAATCCGTATTTGAG (site CATGCAGCTCT)” was 1.51; that for “CATGCCCCATGGACCGGTTTTCCCGGTAATCCGTATTTGGG (site CATGCCCCTCC)” was 0.00831.
Next, “CATGGAACATGGACCGGTTTTCCCGGTAATCCGTATTTGTT (site CATGGAACTAA)”: 1.85; “CATGGAACATGGACCGGTTTTCCCGGTAATCCGTATTTGTT (site CCTGGAACTAA)”: 0.00373.
Next, “CATGGAACATGGACCGGTTTTCCCGGTAATCCGTATTTGTT (site CGTGGAACTAA)”: 0.0146; “CATGGAACATGGACCGGTTTTCCCGGTAATCCGTATTTGTT (site CTTGGAACTAA)”: 0.00575; “CATGGACCATGGACCGGTTTTCCCGGTAATCCGTATTTGGG (site CATGGACCTCC)”: 0.0171.
In the case of “CATGTAACATGGACCGGTTTTCCCGGTAATCCGTATTTGGG (site CATGTAACTCC)”, the “recombinant UMI read abundance (log10)” value is 0.209.
The value for “CATTAAACATGGACCGGTTTTCCCGGTAATCCGTATTTGCC (site CATTAAACTGG)” was 1.51.
The value for “CATTACCCATGGACCGGTTTTCCCGGTAATCCGTATTTGCC (site CATTACCCTGG)” was 0.
Regarding “CATTAGACATGGACCGGTTTTCCCGGTAATCCGTATTTGAG (site CATTAGACTCT)”, the “recombinant UMI read abundance (log10)” value was 1.89.
The value for “CATTAGACATGGACCGGTTTTCCCGGTAATCCGTATTTGAG (site CCTTAGACTCT)” was 0.769; that for “CATTAGACATGGACCGGTTTTCCCGGTAATCCGTATTTGAG (site CGTTAGACTCT)” was 0.492; that for “CATTAGACATGGACCGGTTTTCCCGGTAATCCGTATTTGAG (site CTTTAGACTCT)” was 0.0129.
As to “CATTAGGCATGGACCGGTTTTCCCGGTAATCCGTATTTGCT (site CATTAGGCTAG)”, the “recombinant UMI read abundance (log10)” value turned out to be 1.54.
The value for “CATTATGCATGGACCGGTTTTCCCGGTAATCCGTATTTGGA (site AATTATGCTTC)” was 0.0205; that for “CATTATGCATGGACCGGTTTTCCCGGTAATCCGTATTTGGA (site CATTATGCTTC)” was 1.07.
In the case of “CATTATGCATGGACCGGTTTTCCCGGTAATCCGTATTTGGA (site GATTATGCTTC)”, the “recombinant UMI read abundance (log10)” value was 0.00887.
The value for “CATTATGCATGGACCGGTTTTCCCGGTAATCCGTATTTGGA (site TATTATGCTTC)” was 0.208.
Next, “CATTCAGCATGGACCGGTTTTCCCGGTAATCCGTATTTGCA (site CATTCAGCTTG)”: 1.05; “CATTCATCATGGACCGGTTTTCCCGGTAATCCGTATTTGCT (site CATTCATCTAG)”: 1.4; “CATTCATCATGGACCGGTTTTCCCGGTAATCCGTATTTGCT (site CGATCATCTAG)”: 0.633.
For the sequence “CATTCGCCATGGACCGGTTTTCCCGGTAATCCGTATTTGAG (site CATTCGCCTCT)”, the “recombinant UMI read abundance (log10)” value came to 0.00436.
The value for “CATTCGGCATGGACCGGTTTTCCCGGTAATCCGTATTTGCA (site CATTCGGCTTG)” was 1.15; that for “CATTGAGCATGGACCGGTTTTCCCGGTAATCCGTATTTGTA (site CATTGAGCTTA)” was 2.06; that for “CATTGCCCATGGACCGGTTTTCCCGGTAATCCGTATTTGAC (site CATTGCCCTGT)” was 0.844.
Next, “CATTTGGCATGGACCGGTTTTCCCGGTAATCCGTATTTGCT (site CATTTGGCTAG)”: 0.
The value for “CATTTGGCATGGACCGGTTTTCCCGGTAATCCGTATTTGCT (site CCTTTGGCTAG)” was 0; that for “CATTTGGCATGGACCGGTTTTCCCGGTAATCCGTATTTGCT (site CGTTTGGCTAG)” was 0.
